{"source": "paper PMC6609550", "about": "“Blockade of the forward Na^+/Ca^2+ exchanger suppresses the growth of glioblastoma cells through Ca^2+‐mediated cell death” (British Journal of Pharmacology, 2019)", "key": {"SF188 cells": {"system": "SF188 cells", "test": "Cell viability assay (Cell Counting Kit-8), SF188", "type": "cell-based, Human", "details": "for Effect on viability of paediatric glioblastoma cell line SF188 (in words): 0–100 μM; for Effect on viability of paediatric glioblastoma cell line SF188 (in words) / IC50: 72 hr; for IC50: CCK-8, mean ± SEM", "method": "(§1) Cell viability was determined by using a Cell Counting Kit‐8 (Dojindo, Japan). Briefly, cells were harvested from flasks and plated in 96‐well cell culture plates at 5 × 10^3 per well and cultured overnight. […] Control cells were treated with cell culture medium and measured at the same time point as treatment groups. CCK‐8 solution (10 μl) was added to each well of the 96‐well plates, and the cultures were incubated for 30 min at 37°C. Absorbance at 450 nm was measured using an automatic microplate reader (Molecular Devices, San Jose, CA, USA).\n(§2) Figure 2 Effect of the Na^+/Ca^2+ exchanger (NCX) blockers on viability of human glioblastoma cell lines. (a, b) Viability of adult glioblastoma cell lines (U87 and U251) after exposure to NCX blockers bepridil, KB‐R7943, SEA0400, SN‐6, or YM244769 at 0–100 μM for 72 hr. n = 5 independent tests per group. (c) Viability of paediatric glioblastoma cell line SF188 after 72‐hr incubation with the same NCX blockers at 0–100 μM. n = 5 independent tests per group. (d) For U87, U251, and SF188 cell lines, concentration of the NCX blockers required to produce half maximal inhibition (IC50: μM, mean ± SEM) of cell viability."}, "U251 cells": {"system": "U251 cells", "test": "Cell viability assay (Cell Counting Kit-8), U251", "type": "cell-based, Human", "details": "for IC50: 72 hr, CCK-8, mean ± SEM", "method": "as §1, §2"}, "JNK": {"system": "JNK", "test": "Western blot of phosphorylated and total JNK in U87 cells", "type": "cell-based, Human", "details": "25 μM, 10, 30, 60 and 90 min", "method": "(§3) After treatment with bepridil for 0, 30, 60, and 90 min, cells were collected and lysed in RIPA buffer (Beyotime, Nanjing, China) supplemented with protease inhibitor (Beyotime). The total protein concentration of each sample was determined using the BCA Protein Assay Kit (Sangon Biotech, Shanghai, China). Equal protein extracts (45‐μg protein per lane) were separated by SDS‐PAGE and electrophoretically transferred to PVDF membranes (Millipore, Bedford, MA, USA). Then, the membranes were incubated with anti‐phosphorylated and total http://www.guidetopharmacology.org/GRAC/FamilyDisplayForward?familyId=514, http://www.guidetopharmacology.org/GRAC/FamilyDisplayForward?familyId=518, and http://www.guidetopharmacology.org/GRAC/FamilyDisplayForward?familyId=519 antibodies (1:1,000; Cell Signaling Technology) at 4°C overnight, followed by incubation with IRDye 680LT fluorescent secondary antibody (LI‐COR Biosciences, Lincoln, NE, USA). Proteins were visualized using the Odyssey Fc Imaging System (LI‐COR Biosciences, Lincoln, NE, USA). Mouse α‐tubulin antibody was used as protein loading controls. The immuno‐related procedures used comply with the recommendations made by the British Journal of Pharmacology (Alexander et al., 2018)."}, "[1]": {"test": "LC-MS analysis of brain homogenate after oral bepridil", "type": "in vivo, athymic BALB/c nude mice", "details": "50 mg·kg^−1 p.o., brain homogenate collected at 2 hr", "method": "Athymic BALB/c nude mice were administered bepridil by oral gavage at doses of 50 mg·kg^−1 as described above. Two hours later, mice were killed, and the brain sample was homogenized using the tissue homogenizers (Bertin Instruments, Paris, France) in ice‐cold deionized water at a concentration of 3 ml·g^−1 tissue. Then, methanol with 0.1% formic acid was added to the brain homogenate in a 4:1 proportion (vol/vol) and centrifuged at 18,188× g and 4°C for 10 min to precipitate protein. The supernatant was transferred to a vial to be injected directly into the LC‐MS. The chromatographic system consisted of Shimadzu quaternary pump, vacuum degasser, and autosampler (Shimadzu, LC‐20ADXR, Tokyo, Japan) coupled to https://sciex.com/products/mass-spectrometers/triple-quad-systems, API‐4000 mass spectrometer (SCIEX, Redwood City, CA, USA). HPLC separation was performed on a Thermo Syncronis C8 column 100 × 2.1 mm, 5.0 μm. The mobile phase consisted of methanol (A) and water with 0.1% formic acid (B), measure time was 9 min per run. A flow rate of 0.3 ml·min^−1 was used using a gradient elution of 70% B at 1 min and 5–70% B between 1 and 5 min and maintained for 2 min at 5% B and back to 70% B at 7–7.1 min. […] The CE for bepridil was optimized to 30 V. The precursor‐to‐product ions (Q1 → Q3) selected for bepridil during quantitative optimization were (m/z) 367.1 → 84.3/184.3."}, "ERK": {"system": "ERK", "test": "Western blot of phosphorylated and total ERK in U87 cells", "type": "cell-based, Human", "details": "25 μM, 10, 30, 60 and 90 min", "method": "as §3, with “The” for “After treatment with bepridil for 0, 30, 60, and 90 min, cells were collected and lysed in RIPA buffer (Beyotime, Nanjing, China) supplemented with protease inhibitor (Beyotime). The”"}}}
{"smiles": "CC(C)COCC(CN(Cc1ccccc1)c1ccccc1)N1CCCC1", "note": "(centres unmarked) [Bepridil, N‐benzyl‐N‐(3‐isobutoxy‐2‐pyrrolidin‐1‐yl‐propyl)aniline]", "values": [{"measurement": "Effect on viability of paediatric glioblastoma cell line SF188 (in words)", "setting": "SF188 cells", "result": "suppressed by bepridil and KB‐R7943 in a dose‐dependent manner"}, {"measurement": "Effect on growth (viability) of SF188 cells", "setting": "SF188 cells; 25 μM, 48 hr", "result": "markedly suppressed growth"}, {"measurement": "IC50", "setting": "SF188 cells; Homo sapiens, SF-188", "result": "12.9 ± 1", "unit": "µM"}, {"measurement": "Effect on growth (viability) of U251 cells", "setting": "U251 cells; 25 μM, 48 hr", "result": "markedly suppressed growth"}, {"measurement": "IC50", "setting": "U251 cells; Homo sapiens, U-251", "result": "14.9 ± 1.1", "unit": "µM"}, {"measurement": "Effect on JNK activity", "setting": "JNK", "result": "activated"}, {"measurement": "Crossing of the BBB into brain tissue", "setting": "[1]", "result": "can cross the BBB and get into brain tissue"}, {"measurement": "Effect on ERK activity", "setting": "ERK", "result": "not affected"}]}
{"smiles": "CS(=O)(=O)O.N=C(N)SCCc1ccc(OCc2ccc([N+](=O)[O-])cc2)cc1", "note": "[KB‐R7943, 2‐[4‐[(4‐nitrophenyl)methoxy]phenyl]ethyl ester carbamimidothioic acid methanesulfonate]", "values": [{"measurement": "Effect on viability of paediatric glioblastoma cell line SF188 (in words)", "setting": "SF188 cells", "result": "suppressed by bepridil and KB‐R7943 in a dose‐dependent manner"}, {"measurement": "IC50", "setting": "SF188 cells", "result": "17.3 ± 1", "unit": "µM"}, {"measurement": "IC50", "setting": "U251 cells", "result": "29.2 ± 1.1", "unit": "µM"}]}
